Source: patent US20040062782A1, “Addition of insect repellent during rinse cycle” (priority 2002, published 2004)

System: insects
Experiment: Insect repellence of articles treated with DEET during the rinse cycle of an automated washing machine
Format: in vivo
Protocol: The present invention centers around adding a insect repellent to articles during the rinse cycle of a washing machine. During the rinse cycle, detergent and stains are dissolved into the fluid medium, while the insect repellent is added to the fluid medium and disseminates throughout the fluid medium and articles within the washing machine and is retained by the contents of the washing machine as the fluid medium is partially removed. As the damp articles are removed from the washing machine and subsequently dried, the insect repellent is retained therein as the fluid medium is removed. While there are various application rates of DEET that produce the desired effect of repelling insects from articles under different conditions, it has been found sufficient to provide along the order of 1 fluid ounce of DEET to the articles during the rinse cycle of an automated washing machine. […] It is also within the scope and spirit of the present invention to add […] more than 1 fluid ounce to increase the concentration of DEET retained by the articles after the rinse cycle is complete. For example, if the articles may be exposed to elevated temperatures for an extended period, say 2 hours or more, the amount of DEET added during the rinse cycle may be higher to compensate for the higher amount of DEET emanating from the articles at the elevated temperatures. […] However, higher or lower ratios may be utilized depending upon the conditions of intended use of the articles or the intended duration of insect repellence. As discussed above, the ratio may be […] along the lines of 1:1 to 2:1 to impart insect repellence in accordance with increased exposure to elevated temperatures, and/or to provide insect repellence during a longer duration.

## CCN(CC)C(=O)c1cccc(C)c1 [DEET, N,N-diethyl-m-toluamide]
On the order of 1 fluid ounce of DEET added to the articles during the rinse cycle, article in use
  insect repellence (duration) while the article is being used: approximately 24 hours
On the order of 1 fluid ounce of DEET added to the articles during the rinse cycle, stored articles
  extended insect repellence (duration) for stored articles: approximately one month
Ratio of 4:1 to 5:1 (in fluid ounces) of fabric softener and/or other components to DEET, added to the rinse cycle
  repelling insects from the articles: provides the desired effect of repelling insects from the articles
